Assay results reported in US9101726B2, “Stem cell immune modulation methods of use and apparatus” (The Board of Trustees of the University of Illinois, priority 2009, dated 2015).

Legend:
NO production in CB-SC = experiment: Real time assay for NO production in CB-SC; assay type: cell-based, human
[1] = test system: DNA methyltransferase (DNMT) activity of lymphocytes; experiment: Regulation of DNA methyltransferase activity of lymphocytes by CB-SC-derived NO; assay type: cell-based
allogeneic lymphocytes = experiment: Suppression of CB-SC on allogeneic lymphocytes in presence of inhibitors; assay type: cell-based, human
nitric oxide synthase = experiment: Blocking of the inhibitory effect of stem cells on lymphocytes with nitric oxide synthase inhibitor; assay type: cell-based
[2] = test system: CD4+CD25+CD62L+CD69+ Tregs; experiment: Co-culture of PHA-stimulated lymphocytes with CB-SC in presence of CPM inhibitor and B1R antagonist; assay type: cell-based, human; details: MGTA 10 μM, DALKD 2 μM
Text: To examine the cell-cell contacting effects and CPM and B1R contribution to immune modulation of CB-SC on human Tregs, we performed co-culture experiments in the presence of CPM specific inhibitor MGTA and B1R specific inhibitor DALKD. Lymphocytes plated in trans-wells served as controls. […] Data are representative of five experiments.

[3] = in combination with B1R activator DAKD

Compound: CC(=N)NCc1cccc(CN)c1 [1400 W]
- NO production in CB-SC (NO production in CB-SC; [3]): inhibited
- epigenetic regulation on DNMT activity of lymphocytes by CB-SC-derived NO [1]: significantly blocked
- suppression of CB-SC on allogeneic lymphocytes (allogeneic lymphocytes): reverse the suppression

Compound: NC(=NCCC[C@H](N)C(=O)O)N[N+](=O)[O-] [L-NNA, N-omega-nitro-L-arginine]
- inhibitory effect of stem cells mediated by nitric oxide (NO) (nitric oxide synthase): blocking

Compound: [Des-Arg10, Leu9] kallidin [DALKD]
- NO production in CB-SC (NO production in CB-SC; [3]): inhibited
- positive percentage of CD4+CD25+CD62L+CD69+ Tregs [2]: decrease

Compound: des-Arg 10-bradykinin (KRPPGFSPF) [DAKD]
- NO production in CB-SC (NO production in CB-SC; agent alone): increased
